According to patent US11807644B2 (PMV Pharmaceuticals, Inc., priority 2020, dated 2023):

target: T1, recombinant His-tag Y220C p53 DBD protein (Homo sapiens, UniProt P04637, Y220C); experiment: In vitro DNA binding activity assay (TR-FRET): binding of His-tag Y220C p53 DBD to biotin-labeled consensus DNA; assay type: biochemical; details: SC150 = concentration to increase DNA binding by […], His-tag Y220C p53 DBD, biotin-labeled consensus DNA
T1 construct: recombinant His-tag Y220C p53 DBD protein (amino acids #˜94-312)

Row | Y220C SC150 (μM) | SMILES
1 | * (* = 0 μM ≤ SC150 < 0.1 μM) | CN1CC[C@@H](Nc2cccc3c2cc(-c2noc(CNC(=O)c4cn(CCF)cn4)n2)n3CC(F)(F)F)[C@@H](F)C1 [Compound 306B, N-{[3-(4-{[(3S,4R)-3-fluoro-1-methylpiperidin-4-yl]amino}-1-(2,2,2-trifluoroethyl)-1H-indol-2-yl)-1,2,4-oxadiazol-5-yl]methyl}-1-(2-fluoroethyl)-1H-imidazole-4-carboxamide]
2 | * (* = 0 μM ≤ SC150 < 0.1 μM) | CN1CC[C@@H](Nc2cccc3c2cc(-c2noc(CNC(=O)c4cnn(-c5ccccc5)c4)n2)n3CC(F)(F)F)[C@@H](F)C1 [Compound 308B, N-{[3-(4-{1[(3S,4R)-3-fluoro-1-methylpiperidin-4-yl]amino}-1-(2,2,2-trifluoroethyl)-1H-indol-2-yl)-1,2,4-oxadiazol-5-yl]methyl}-1-phenyl-1H-pyrazole-4-carboxamide]
3 | * (* = 0 μM ≤ SC150 < 0.1 μM) | CN1CC[C@@H](Nc2cccc3c2cc(-c2noc(CNC(=O)c4cncn4-c4ccccc4)n2)n3CC(F)(F)F)[C@@H](F)C1 [Compound 309B, N-{[3-(4-{[(3S,4R)-3-fluoro-1-methylpiperidin-4-yl]amino)-1-(2,2,2-trifluoroethyl)-1H-indol-2-yl)-1,2,4-oxadiazol-5-yl]methyl}-1-phenyl-1H-imidazole-5-carboxamide]
4 | * (* = 0 μM ≤ SC150 < 0.1 μM) | CN1CC[C@@H](Nc2cccc3c2cc(-c2noc(CNC(=O)c4cn(CC(F)F)cn4)n2)n3CC(F)(F)F)[C@@H](F)C1 [Compound 310B, 1-(2,2-difluoroethyl)-N-{[3-(4-{[(3S,4R)-3-fluoro-1-methylpiperidin-4-yl]amino}-1-(2,2,2-trifluoroethyl)-1H-indol-2-yl)-1,2,4-oxadiazol-5-yl]methyl}-1H-imidazole-4-carboxamide]
5 | * (* = 0 μM ≤ SC150 < 0.1 μM) | Cc1nn(C(C)C)cc1C(=O)NCc1nc(-c2cc3c(N[C@@H]4CCN(C)C[C@@H]4F)cccc3n2CC(F)(F)F)no1 [Compound 311B, N-{[3-(4-{[(3S,4R)-3-fluoro-1-methylpiperidin-4-yl]amino}-1-(2,2,2-trifluoroethyl)-1H-indol-2-yl)-1,2,4-oxadiazol-5-yl]methyl}-3-methyl-1-(propan-2-yl)-1H-pyrazole-4-carboxamide]
6 | * (* = 0 μM ≤ SC150 < 0.1 μM) | CN1CC[C@@H](Nc2cccc3c2cc(-c2noc(CNC(=O)c4cnn(C5CCCC5)c4)n2)n3CC(F)(F)F)[C@@H](F)C1 [Compound 312B, 1-cyclopentyl-N-{[3-(4-{[(3S,4R)-3-fluoro-1-methylpiperidin-4-yl]amino}-1-(2,2,2-trifluoroethyl)-1H-indol-2-yl)-1,2,4-oxadiazol-5-yl]methyl}-1H-pyrazole-4-carboxamide]
7 | * (* = 0 μM ≤ SC150 < 0.1 μM) | CCN1CC[C@@H](Nc2cccc3c2cc(-c2noc(CNC(=O)c4cnn(C5CCOC5)c4)n2)n3CC(F)(F)F)[C@@H](F)C1 (stereo partly drawn) [Compound 314B, N-{[3-(4-{[(3S,4R)-1-ethyl-3-fluoropiperidin-4-yl]amino}-1-(2,2,2-trifluoroethyl)-1H-indol-2-yl)-1,2,4-oxadiazol-5-yl]methyl}-1-(oxolan-3-yl)-1H-pyrazole-4-carboxamide]
8 | * (* = 0 μM ≤ SC150 < 0.1 μM) | CC(C)N1CC[C@@H](Nc2cccc3c2cc(-c2noc(CNC(=O)c4cnn(C(C)(C)C)c4)n2)n3CC(F)(F)F)[C@@H](F)C1 [Compound 316B, 1-tert-butyl-N-{[3-(4-{[(3S,4R)-3-fluoro-1-(propan-2-yl)piperidin-4-yl]amino}-1-(2,2,2-trifluoroethyl)-1H-indol-2-yl)-1,2,4-oxadiazol-5-yl]methyl}-1H-pyrazole-4-carboxamide]

Further lines, the molecule ahead of its results:

Row | SMILES | Y220C SC150 (μM)
9 | CN1CC[C@@H](Nc2cccc3c2cc(-c2noc(CNC(=O)c4cn(C(C)(C)C)cn4)n2)n3CC(F)(F)F)[C@@H](F)C1 [Compound 292B, 1-tert-butyl-N-{[3-(4-{[(3S,4R)-3-fluoro-1-methylpiperidin-4-yl]amino}-1-(2,2,2-trifluoroethyl)-1H-indol-2-yl)-1,2,4-oxadiazol-5-yl]methyl}-1H-imidazole-4-carboxamide] | * (* = 0 μM ≤ SC150 < 0.1 μM)
10 | CCN1CC[C@@H](Nc2cccc3c2cc(-c2noc(CNC(=O)c4ccn(CCF)c4)n2)n3CC(F)(F)F)[C@@H](F)C1 [Compound 293B, N-{[3-(4-{[(3S,4R)-1-ethyl-3-fluoropiperidin-4-yl]amino}-1-(2,2,2-trifluoroethyl)-1H-indol-2-yl)-1,2,4-oxadiazol-5-yl]methyl}-1-(2-fluoroethyl)-1H-pyrrole-3-carboxamide] | * (* = 0 μM ≤ SC150 < 0.1 μM)
11 | CN1CC[C@@H](Nc2cccc3c2cc(-c2noc(CNC(=O)c4cnn(C)c4)n2)n3CC(F)(F)F)[C@@H](F)C1 [Compound 294B, N-{[3-(4-{[(3S,4R)-3-fluoro-1-methylpiperidin-4-yl]amino}-1-(2,2,2-trifluoroethyl)-1H-indol-2-yl)-1,2,4-oxadiazol-5-yl]methyl}-1-methyl-1H-pyrazole-4-carboxamide] | * (* = 0 μM ≤ SC150 < 0.1 μM)
12 | COc1ccc(C(=O)NCc2nc(-c3cc4c(N[C@@H]5CCN(C)C[C@@H]5F)cccc4n3CC(F)(F)F)no2)cc1 [Compound 295B, N-{[3-(4-{[(3S,4R)-3-fluoro-1-methylpiperidin-4-yl]amino}-1-(2,2,2-trifluoroethyl)-1H-indol-2-yl)-1,2,4-oxadiazol-5-yl]methyl}-4-methoxybenzamide] | * (* = 0 μM ≤ SC150 < 0.1 μM)
13 | CN1CC[C@@H](Nc2cccc3c2cc(-c2noc(CNC(=O)c4cnn(C5CC5)c4)n2)n3CC(F)(F)F)[C@@H](F)C1 [Compound 296B, 1-cyclopropyl-N-{[3-(4-{[(3S,4R)-3-fluoro-1-methylpiperidin-4-yl]amino}-1-(2,2,2-trifluoroethyl)-1H-indol-2-yl)-1,2,4-oxadiazol-5-yl]methyl}-1H-pyrazole-4-carboxamide] | * (* = 0 μM ≤ SC150 < 0.1 μM)
14 | COCCn1cnc(C(=O)NCc2nc(-c3cc4c(N[C@@H]5CCN(C)C[C@@H]5F)cccc4n3CC(F)(F)F)no2)c1 [Compound 297B, N-{[3-(4-{[(3S,4R)-3-fluoro-1-methylpiperidin-4-yl]amino}-1-(2,2,2-trifluoroethyl)-1H-indol-2-yl)-1,2,4-oxadiazol-5-yl]methyl}-1-(2-methoxyethyl)-1H-imidazole-4-carboxamide] | * (* = 0 μM ≤ SC150 < 0.1 μM)
15 | CCN1CC[C@@H](Nc2cccc3c2cc(-c2noc(CNC(=O)c4ccn(C(C)(C)C)c4)n2)n3CC(F)(F)F)[C@@H](F)C1 [Compound 298B, 1-tert-butyl-N-{[3-(4-{[(3S,4R)-1-ethyl-3-fluoropiperidin-4-yl]amino}-1-(2,2,2-trifluoroethyl)-1H-indol-2-yl)-1,2,4-oxadiazol-5-yl]methyl}-1H-pyrrole-3-carboxamide] | * (* = 0 μM ≤ SC150 < 0.1 μM)
16 | CCN1CC[C@H](Nc2cccc3c2cc(-c2noc(CNC(=O)c4ccn(C(C)(C)C)c4)n2)n3CC(F)(F)F)[C@H](F)C1 [Compound 299B, 1-tert-butyl-N-{[3-(4-{[(3R,4S)-1-ethyl-3-fluoropiperidin-4-yl]amino}-1-(2,2,2-trifluoroethyl)-1H-indol-2-yl)-1,2,4-oxadiazol-5-yl]methyl}-1H-pyrrole-3-carboxamide] | * (* = 0 μM ≤ SC150 < 0.1 μM)
17 | CN1CC[C@@H](Nc2cccc3c2cc(-c2noc(CNC(=O)c4cnn(Cc5ccccc5)c4)n2)n3CC(F)(F)F)[C@@H](F)C1 [Compound 300B, 1-benzyl-N-{[3-(4-{[(3S,4R)-3-fluoro-1-methylpiperidin-4-yl]amino}-1-(2,2,2-trifluoroethyl)-1H-indol-2-yl)-1,2,4-oxadiazol-5-yl]methyl}-1H-pyrazole-4-carboxamide] | * (* = 0 μM ≤ SC150 < 0.1 μM)
18 | CN1CC[C@@H](Nc2cccc3c2cc(-c2noc(CNC(=O)c4cnn(CCF)c4)n2)n3CC(F)(F)F)[C@@H](F)C1 [Compound 301B] | * (* = 0 μM ≤ SC150 < 0.1 μM)
19 | COCC(C)n1cc(C(=O)NCc2nc(-c3cc4c(N[C@@H]5CCN(C)C[C@@H]5F)cccc4n3CC(F)(F)F)no2)cn1 (stereo partly drawn) [Compound 302B, N-{[3-(4-{[(3S,4R)-3-fluoro-1-methylpiperidin-4-yl]amino}-1-(2,2,2-trifluoroethyl)-1H-indol-2-yl)-1,2,4-oxadiazol-5-yl]methyl}-1-(1-methoxypropan-2-yl)-1H-pyrazole-4-carboxamide] | * (* = 0 μM ≤ SC150 < 0.1 μM)
20 | CC(CF)n1cc(C(=O)NCc2nc(-c3cc4c(N[C@@H]5CCN(C)C[C@@H]5F)cccc4n3CC(F)(F)F)no2)cn1 (stereo partly drawn) [Compound 303B, N-{[3-(4-{[(3S,4R)-3-fluoro-1-methylpiperidin-4-yl]amino}-1-(2,2,2-trifluoroethyl)-1H-indol-2-yl)-1,2,4-oxadiazol-5-yl]methyl}-1-(1-fluoropropan-2-yl)-1H-pyrazole-4-carboxamide] | * (* = 0 μM ≤ SC150 < 0.1 μM)
21 | CCN1CC[C@@H](Nc2cccc3c2cc(-c2noc(CNC(=O)c4cnn(C(C)(C)C)c4)n2)n3CC(F)(F)F)[C@@H](F)C1 [Compound 304B, 1-tert-butyl-N-{[3-(4-{[(3S,4R)-1-ethyl-3-fluoropiperidin-4-yl]amino}-1-(2,2,2-trifluoroethyl)-1H-indol-2-yl)-1,2,4-oxadiazol-5-yl]methyl}-1H-pyrazole-4-carboxamide] | * (* = 0 μM ≤ SC150 < 0.1 μM)
22 | CCN1CC[C@@H](Nc2cccc3c2cc(-c2noc(CNC(=O)c4cn(C(C)(C)C)cn4)n2)n3CC(F)(F)F)[C@@H](F)C1 [Compound 305B, 1-tert-butyl-N-{[3-(4-{[(3S,4R)-1-ethyl-3-fluoropiperidin-4-yl]amino}-1-(2,2,2-trifluoroethyl)-1H-indol-2-yl)-1,2,4-oxadiazol-5-yl]methyl}-1H-imidazole-4-carboxamide] | * (* = 0 μM ≤ SC150 < 0.1 μM)
